Here are results for nine compounds from PMC10819521 (Pharmaceutics, 2024).

The nature of assay [1]: Oxygen radical absorbance capacity assay (ORAC-FL). As to conditions: ORAC-FL method; mean ± SEM. The protocol:
Oxygen radical absorbance capacity assay. The evaluation of the antioxidant activity of compounds 4a–l was carried out using the previously established ORAC-FL method, and detailed information is provided in the supporting information.
Antioxidant assay. The antioxidant assessment was conducted by evaluating the compounds 4a–l through the determination of oxygen radical absorbance capacity (ORAC) using the ORAC-Fluorescein (ORAC-FL) method […]
Oxygen radical absorbance capacity assay.
ORAC-FL method, using fluorescein as a fluorescent probe. Shortly, fluorescein and the antioxidants
2,2'-Azobis(amidinopropane)
(emission wavelength) every minute for 1 hour. […]

The target in assay [2] is T1, Human isolated cathepsin B (Homo sapiens, UniProt P07858).
T1 construct: Human isolated cathepsin B (Calbiochem) was assayed spectrophotometrically; purchased Calbiochem
Nature of the assay: Cathepsin B assay (chromogenic substrate Z-Arg-Arg-pNA). As to conditions: 50 µM inhibitor, 60 min, 100% = no inhibitor, n.i. = residual activity ≥ 95%; for remaining activity at 50 µM: read-out: Percentage residual activity of human cathepsin B. Format: biochemical. The protocol: (§1) Cathepsin assays. Assays with human cathepsins B, S, L, and K were carried out as described previously. Stock solutions of substrates and inhibitors were prepared in DMSO. The final DMSO concentration was 2%. All test compounds were investigated in duplicate at a concentration of 50 µM to determine residual activities based on endpoints of substrate consumption after 60 min. Ki values were obtained in duplicate measurements with six different inhibitor concentrations, and 60-min-progress curves were analyzed by linear regression. IC50 values were obtained by non-linear regression using the equation vi = v0/(1 + ([I]/IC50), where vi is the product formation rate at different inhibitor concentrations, v0 is the uninhibited product formation rate, [I] is the inhibitor concentration, and IC50 is the half-maximal inhibitory concentration. IC50 values are transformed to Ki values using the Cheng-Prusoff equation.
Human isolated cathepsin B (Calbiochem) was assayed spectrophotometrically (Cary 50 Bio, Varian) at 405 nm and 37 °C. Assay buffer was 100 mM sodium phosphate buffer pH 6.0, 100 mM NaCl, 5 mM EDTA, 0.01% Brij 35. For activation, an enzyme stock solution was diluted with assay buffer containing 5 mM DTT and incubated for 30 min at 37 °C. The final concentration of the chromogenic substrate Z-Arg-Arg-pNA was 500 µM (0.45 × Km).
(§2) Cathepsins inhibition. Compounds 4a–l were then evaluated for their ability to inhibit Cat S. Besides Cat S, the set of assays included three related human cathepsins, B, L, and K, all members of the class of lysosomal cysteine proteases (see Table S1 in the Supporting Information). Following reported procedures, [39, 40, 41] percentage or residual activities were determined using chromogenic or fluorogenic peptide substrates, with endpoints measured after 60 min of substrate consumption. To determine Ki values, progress curves were followed over 60 min and analyzed by linear regression. Ki values were then obtained by non-linear regression.

The target of assay [3] is T2, Human recombinant cathepsin K (Homo sapiens, UniProt P43235).
T2 construct: purchased Enzo Life Sciences
T2 sequence (P43235 115-329): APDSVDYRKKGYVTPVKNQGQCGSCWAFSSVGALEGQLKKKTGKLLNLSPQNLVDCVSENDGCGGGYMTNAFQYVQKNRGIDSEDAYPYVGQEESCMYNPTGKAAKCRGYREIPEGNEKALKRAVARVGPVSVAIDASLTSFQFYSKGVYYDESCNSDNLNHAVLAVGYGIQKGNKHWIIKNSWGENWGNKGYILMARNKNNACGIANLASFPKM
Kind of assay: Cathepsin K assay (substrate Z-Leu-Arg-AMC). It is filed as biochemical. As to conditions: 50 µM inhibitor, 60 min, 100% = no inhibitor, n.i. = residual activity ≥ 95%; for remaining activity at 50 µM: read-out: Percentage residual activity of human cathepsin K. The protocol:
as §1
Human recombinant cathepsin K (Enzo Life Sciences) was assayed fluorometrically (FLUOstar Optima plate reader, BMG Labtech) with an emission wavelength of 360 nm and an absorption wavelength of 460 nm. The assay buffer was 100 mM sodium citrate pH 5.0, 100 mM NaCl, 1 mM EDTA, 0.01% CHAPS. For activation, an enzyme stock solution was diluted with assay buffer containing 5 mM DTT and incubated for 30 min at 37 °C. The final concentration of the chromogenic substrate Z-Leu-Arg-AMC was 40 µM (13.33 × Km).
as §2

The target in assay [4] is T3, Human recombinant cathepsin S (Homo sapiens, UniProt P25774).
T3 construct: purchased Enzo Life Sciences
T3 sequence (P25774 115-331): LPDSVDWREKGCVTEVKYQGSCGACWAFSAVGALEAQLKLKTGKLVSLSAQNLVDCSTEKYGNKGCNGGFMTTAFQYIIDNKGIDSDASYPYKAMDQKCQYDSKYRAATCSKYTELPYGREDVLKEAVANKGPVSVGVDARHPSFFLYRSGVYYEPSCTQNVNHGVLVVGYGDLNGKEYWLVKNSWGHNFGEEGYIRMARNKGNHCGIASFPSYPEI
Kind of assay: Cathepsin S assay (fluorogenic substrate Z-Phe-Arg-AMC). Format: biochemical. To be noted: for remaining activity at 50 µM: 50 µM inhibitor, 60 min, 100% = no inhibitor, n.i. = residual activity ≥ 95%, read-out: Percentage residual activity of human cathepsin S; for Ki: Ki ± SEM, n.i. = no inhibition, residual activity ≥ 95% at 50 μM, read-out: CatS Ki. Here is the method: as §1
Human recombinant cathepsin S (Enzo Life Sciences) was assayed fluorometrically (FLUOstar Optima plate reader, BMG Labtech) at 25 °C with an emission wavelength of 360 nm and an absorption wavelength of 460 nm. The assay buffer was 100 mM sodium phosphate buffer pH 6.0, 100 mM NaCl, 5 mM EDTA, 0.01% Brij 35. For activation, an enzyme stock solution was diluted with assay buffer containing 5 mM DTT and incubated for 60 min at 37 °C.
as §2

In the next assay the test system is Nrf2-ARE. Nature of the assay: Nrf2 transcriptional activation, cell-based luciferase assay. As to conditions: 24 h; for EC50: CD = concentration required to double the specific activity of the luciferase reporter, read-out: Nrf2 Induction Potencies CD. The protocol: Nrf2 transcriptional activation potencies. The assessment of the Nrf2 transcriptional activation potencies of compounds 4a–l was carried out using the previously described method, and detailed information is provided in the supporting information.
Nrf2 transcriptional activation potencies of compounds 4a–l. […] AREc32 cells were exposed to escalating concentrations of each compound (1, 5, 10, 25, 50, 100, 125, and 150 μM) for 24 h to reach the cytotoxic threshold, followed by measurements of luciferase activity. Melatonin was used as a positive control.
4e H Cl H n.i. 76 n.i. […]
Nrf2 transcriptional activation potencies. The stable NRF2/ARE luciferase reporter HEK293 cell line
(Promega) according to the manufacturer's instructions. To assess cellular viability, the stable

Assay [5] concerns the target T4, Human isolated cathepsin L (Homo sapiens, UniProt P07711).
T4 construct: Human isolated cathepsin L (Enzo Life Sciences) was assayed spectrophotometrically; purchased Enzo Life Sciences
Kind of assay: Cathepsin L assay (chromogenic substrate Z-Phe-Arg-pNA). It is filed as biochemical. To be noted: 50 µM inhibitor, 60 min, 100% = no inhibitor, n.i. = residual activity ≥ 95%; for remaining activity at 50 µM: read-out: Percentage residual activity of human cathepsin L. Here is the method:
as §1
Human isolated cathepsin L (Enzo Life Sciences) was assayed spectrophotometrically (Cary 50 Bio, Varian) at 405 nm and 37 °C. The assay buffer was 100 mM sodium phosphate buffer pH 6.0, 100 mM NaCl, 5 mM EDTA, and 0.01% Brij 35. For activation, an enzyme stock solution was diluted with assay buffer containing 5 mM DTT and incubated for 30 min at 37 °C. The final concentration of the chromogenic substrate Z-Phe-Arg-pNA was 100 µM (5.88 × Km).
as §2

Assay [6] concerns voltage-gated calcium channels. Kind of assay: Calcium channel blockade (FLIPR Calcium 6 indicator, SH-SY5Y cells). As to conditions: compounds at 10 µM, KCl/CaCl2 stimulation, n.i. = no inhibition. It is filed as cell-based, human. Here is the method:
Calcium channel blockade. Evaluation of the calcium channel blockade of compounds 4a–l was performed using the FLIPR Calcium 6 indicator according to a previously established protocol. Briefly, human neuroblastoma cell line SH-SY5Y seeded out on 96-well plate were treated with fluorescent calcium indicator (FLIPR Calcium 6, Molecular Devices). Cells were incubated with indicator for 2 h at 37 °C, facilitating internalization of the indicator. Subsequently, cells were exposed to nimodipine (10 µM, used as reference inhibitor), DMSO (0.1%, used as vehicle control) or our compounds of interest (10 µM) for 10 min also at 37 °C. Following that, cell fluorescence was recorded using a microplate reader (λEx = 485 nm; λEm = 525 nm). Baseline fluorescence was recorded for 5 s. Afterwards, cells were stimulated by the addition of the solution of KCl and CaCl2 (90 and 5 mM, respectively) in order to induce the opening of voltage-gated calcium channels. An increase in fluorescence of calcium indicator after inducing calcium flux was recorded for another 30 s. Data were collected from three independent experiments, with eight technical replicates per experiment. Fluorescence intensity values were normalized to the baseline recorded before the induction of calcium flux. The percentage of inhibition was calculated as a reduction of normalized calcium flux in comparison with the DMSO vehicle control. Outliers were detected using the Grubbs test, and any outlying values were excluded from further analysis.
Calcium channel blockade. The Ca^2+ channel blocking capacity of compounds 4a–l and nimodipine, used as a standard at a concentration of 10 μM, was evaluated according to an established methodology.

Each structure is given as a SMILES string. “And” between values parts separate entries of the source, which are not always exact repeats. Equal values may be shown once.

T4 sequence (P07711 114-333): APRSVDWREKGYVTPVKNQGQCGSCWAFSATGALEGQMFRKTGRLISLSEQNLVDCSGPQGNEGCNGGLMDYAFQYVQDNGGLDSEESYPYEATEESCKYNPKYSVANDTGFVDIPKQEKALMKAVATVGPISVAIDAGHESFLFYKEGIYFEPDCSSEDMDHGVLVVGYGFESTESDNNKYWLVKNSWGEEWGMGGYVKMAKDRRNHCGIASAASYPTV

As to `C#CCNC(=O)C1=C(C)NC(C)=C(C(=O)NCC#C)C1c1ccccc1` [4a, 2,6-Dimethyl-4-phenyl-N3,N5-bis(prop-2-yn-1-yl)-1,4-dihydropyridine-3,5-dicarboxamide], the ORAC in assay [1] is 0.86 Trolox equivalents and 0.86 ± 0.05 Trolox equivalents. In assay [2], the “Percentage residual activity of human cathepsin B” value is recorded as “n.i”. In addition, the “Percentage residual activity of human cathepsin K” value in assay [3] is “n.i”. Besides, the remaining activity at 50 µM in assay [4] was 68%. The “Induction of the Nrf2 pathway (luciferase activity)” value with Nrf2-ARE (concentrations up to 150 μM, versus non-treated cells) was “no significant activity”. The “Percentage residual activity of human cathepsin L” value in assay [5] is “n.i”. For the same compound, the “Calcium Channel Blockade (%)” value in assay [6] worked out at 12%.
Consider `C#CCNC(=O)C1=C(C)NC(C)=C(C(=O)NCC#C)C1c1cccc2nonc12` [4d, 4-(2,1,3-Benzoxadiazol-4-yl)-2,6-dimethyl-N3,N5-bis(prop-2-yn-1-yl)-1,4-dihydropyridine-3,5-dicarboxamide], for which, in assay [1], the ORAC amounted to 1.23 ± 0.23 Trolox equivalents. For the same compound, the “Percentage residual activity of human cathepsin B” value in assay [2] is on record as “n.i”. Further, the results for the remaining activity at 50 µM in assay [3], in assay [4] and in assay [5] were 62%, 77% and 90%, respectively. Further, the “Calcium Channel Blockade (%)” value in assay [6] turned out to be 10%.
In assay [1], `C#CCNC(=O)C1=C(C)NC(C)=C(C(=O)NCC#C)C1c1ccccc1Cl` [4e, 4-(2-Chlorophenyl)-2,6-dimethyl-N3,N5-bis(prop-2-yn-1-yl)-1,4-dihydropyridine-3,5-dicarboxamide] registered an ORAC of 1.15 ± 0.02 Trolox equivalents. The “Percentage residual activity of human cathepsin B” value in assay [2] is “n.i”. The values for the remaining activity at 50 µM in assay [3] and in assay [4] were 85% and 76%, respectively. Also, in assay [5], the “Percentage residual activity of human cathepsin L” value is listed as “n.i”. In addition, the “Calcium Channel Blockade (%)” value in assay [6] was “n.i”.
In turn, `C#CCNC(=O)C1=C(C)NC(C)=C(C(=O)NCC#C)C1c1ccccc1OC` [4f, 4-(2-Methoxyphenyl)-2,6-dimethyl-N3,N5-bis(prop-2-yn-1-yl)-1,4-dihydropyridine-3,5-dicarboxamide] returned an ORAC in assay [1] of 1.34 ± 0.20 Trolox equivalents. For the same compound, the remaining activity at 50 µM in assay [2] was determined as 71%; in assay [4], 67%; in assay [5], 86%. For the same compound, in assay [3], the “Percentage residual activity of human cathepsin K” value is given as “n.i”. Also, the “Calcium Channel Blockade (%)” value in assay [6] came to 19%.
In assay [1], `C#CCNC(=O)C1=C(C)NC(C)=C(C(=O)NCC#C)C1c1ccccc1Br` [4g, 4-(2-Bromophenyl)-2,6-dimethyl-N3,N5-bis(prop-2-yn-1-yl)-1,4-dihydropyridine-3,5-dicarboxamide] came in with an ORAC of 1.43 ± 0.03 Trolox equivalents. Moreover, the figures for the remaining activity at 50 µM in assay [2], in assay [3] and in assay [4] were 88%, 90% and 70%, respectively. Also, the “Percentage residual activity of human cathepsin L” value in assay [5] is “n.i”. Besides, the “Calcium Channel Blockade (%)” value in assay [6] is “n.i”.
Compound `C#CCNC(=O)C1=C(C)NC(C)=C(C(=O)NCC#C)C1c1cccc(Br)c1` [4h, 4-(3-Bromophenyl)-2,6-dimethyl-N3,N5-bis(prop-2-yn-1-yl)-1,4-dihydropyridine-3,5-dicarboxamide] returned an ORAC in assay [1] of 1.28 ± 0.05 Trolox equivalents. Moreover, the remaining activity at 50 µM in assay [2] came out at 71%; in assay [4], 54%; in assay [5], 87%. The “Percentage residual activity of human cathepsin K” value in assay [3] is given as “n.i”. The Ki in assay [4] worked out at 55.3 ± 7.4 µM. Moreover, in assay [6], the “Calcium Channel Blockade (%)” value is 7%.
Turning to `C#CCN(C)C(=O)C1=C(C)NC(C)=C(C(=O)N(C)CC#C)C1c1ccccc1Cl` [4i, 4-(2-Chlorophenyl)-N2,N3,5,6-tetramethyl-N3,N5-bis(prop-2-yn-1-yl)-1,4-dihydropyridine-3,5-dicarboxamide], the ORAC in assay [1] was 1.93 Trolox equivalents and 1.93 ± 0.08 Trolox equivalents. For the same compound, the remaining activity at 50 µM in assay [2] was 87%; in assay [3], 65%; in assay [4] it was 58%; in assay [5], 91%. The Ki in assay [4] worked out at 69.3 ± 5.2 µM. The EC50 with Nrf2-ARE came out at 96 ± 6.1 µM. In addition, in assay [6], the “Calcium Channel Blockade (%)” value is recorded as 11%.
As to `COc1ccc2[nH]cc(CCNC(C)=O)c2c1` [melatonin, reference compound], in the assay on Nrf2-ARE, the EC50 was 66.4 ± 16.4 µM.
On to `COCCOC(=O)C1=C(C)NC(C)=C(C(=O)OC(C)C)C1c1cccc([N+](=O)[O-])c1` (stereo not drawn) [nimodipine, reference compound], for which the “Calcium Channel Blockade (%)” value in assay [6] came to 37%.
